Test results as given in patent US20220265597A1, “ANTIVIRAL EFFECTS OF NARASIN IN SWINE FEED” (Elanco US Inc., priority 2014, published 2022).
Marks after values point to notes of the source that are not given here.

Experiments:
Format in all cases: in vivo, pig
PEDV [1] = experiment: Intestinal histology score and immunohistochemistry of PEDV-challenged nursery pigs; conditions: not significant (P>0.05)
Method: (§1) Viral shedding values was evaluated by RMANOVA and the PROC MIXED procedure of SAS (SAS, Cary, N.C.). Other variables for analysis included growth performance data (average daily gain, or ADG; average daily feed intake, or ADFI; and feed efficiency (unit of weight gain per unit of feed consumed), or G:F), incidence and severity of diarrhea, depression, and gauntness scores, and intestinal histology score and immunohistochemistry. The analysis of the growth performance outcomes were conducted using a generalized linear mixed model and the PROC MIXED procedure of SAS.
The effects of narasin inclusion level on the intestinal histology score and immunohistochemistry were analyzed. As narasin level increased from 0, 30, 60 mg/kg), histology scores decreased from 2 to 0 while the immunohistochemistry score decreased only at the 60 mg/kg level (from 3 to 2) although differences were not significant (P>0.05).

PEDV [2] = experiment: Enteric clinical observation scoring (diarrhea, depression, gauntness) of nursery pigs challenged with PEDV; parameters: Depression score, Severity: scale not given here; conditions: for Depression score, Severity / Diarrhea score, Severity / Gauntness score, Severity: average of worst score of each pig over 14-d period; for Depression score, Incidence / Diarrhea score, Incidence / Gauntness score, Incidence: pigs affected/pigs; for Gauntness score, Mean of Day 0 to 14: score 0-2; for Depression score, Mean of Day 0 to 14: score 0-3; for Diarrhea score, Mean of Day 0 to 14: score 1-4
Method: (§2) The seventy-five piglets were randomly assigned to one of three treatment groups: control (no ionophore), narasin (30 mg/kg) and narasin (60 mg/kg). They acclimatized to their environment and were fed daily for seven days prior to exposure with PEDV on Day 0. Treatment continued for 14 days following challenge. Pigs from the three treatment groups were administered orally with 4×10^4 TCID50/mL of the PEDV isolate PEDV/USA/NC/2013/49469 (College of Veterinary Medicine, Iowa State University). The piglets were monitored daily for changes in clinical parameters, clinical score for diarrhea, depression and gauntness, rate of food consumption, and rate of body weight change and viral swabs were taken daily to determine viral shedding.
Incidence and severity of the score data (diarrhea, depression, and gauntness) were summarized by frequencies and mean scores on a daily basis.
Table 2 indicates the scoring system used to measure diarrhea, depression, and gauntness. Table 3 compares the mean scores for diarrhea, depression and gauntness in nursery pigs whose diet included 0, 30 or 60 mg/kg narasin.

PEDV [3] = experiment: Viral shedding of PEDV in fecal swabs by real-time RT-PCR; conditions: for Viral shedding: only pigs positive for shedding
Method: as §2, §1
The effects of narasin levels (0, 30, 60 mg/kg) on within-day viral shedding of nursery pigs (Table 4) and percentage of nursery pigs shedding PEDV (Table 5) are compared. Fecal swabs were collected from all pigs on test daily from Day 0 to 14 of study. Each sample was labeled with pig identification, pen number, and sample day. All samples were frozen at the time of collection and stored until required for analysis. Only fecal swab samples collected from days 0, 1, 2, 3, 4, 5, 6, 7, 8, 9, and 14 were sent for analysis. Fecal swab samples were sent to the Iowa State Veterinary Diagnostic Laboratory (ISVDL) and were analyzed using real-time RT-PCR to determine viral shedding of PEDV.

PEDV [4] = experiment: Growth performance of nursery pigs challenged with PEDV, narasin in feed; conditions: 0, 30, 60 mg/kg feed; Day 0 to 14; P>0.10
Text: Eighty-one weaning stage (21.8+/−0.6 days) commercial crossbred piglets (Wilson's Prairie View Farms, Burlington, Wis.) free of PEDV infection arrived at the site and six were used as potential replacement animals during the pre-challenge period (Day −7 to Day 0). Six piglets were removed at Day 0 immediately prior to PEDV challenge, resulting in fifteen pens containing five piglets/pen (n=75) animals. There were five pens per treatment. For balance of sentinel piglets within a block, a total of thirty-nine piglets of one gender and thirty-six of the other gender were used. The use of five pens (twenty-five piglets) per treatment group was estimated to detect significant differences (P<0.10) between treatment groups in growth performance and incidence of viral shedding.
as §2, §1
Diet formulations were manufactured at Provimi (Lewisburg, Ohio) and fed in meal form.
The effects of narasin inclusion level on mean body weights (BW), average daily weight gain (ADG), average daily feed intake (ADFI), feed efficiency (G:F), and feed conversion ratio (F:G) are shown in Table 1.

[5] = 0, 30, 60 mg/kg feed, 14-d period

SMILES: CC[C@@H](C(=O)O)[C@@H]1O[C@@H]([C@@H](C)[C@H](O)[C@H](C)C(=O)[C@H](CC)[C@H]2O[C@]3(C=C[C@@H](O)[C@]4(CC[C@@](C)([C@H]5CC[C@](O)(CC)[C@H](C)O5)O4)O3)[C@H](C)C[C@@H]2C)[C@@H](C)C[C@@H]1C [narasin]
- immunohistochemistry score (PEDV [1]; 60 mg/kg feed, decreased from 3): 2
- intestinal histology score (PEDV [1]; narasin level increased 0, 30, 60 mg/kg: decreased from 2 to 0): 0
- effect of narasin level on mean of depression scores (PEDV [2]; [5]): not affected
- effect of narasin level on mean or severity of gauntness scores (PEDV [2]; [5]): little effect
- incidence of depression, animals (PEDV [2]; 30 mg/kg feed, 14-d period): 4 animals
- Depression score, Severity (PEDV [2]; 30 mg/kg feed): 0.16
- Diarrhea score, Severity (PEDV [2]; 30 mg/kg feed): 2.72
- Gauntness score, Severity (PEDV [2]; 30 mg/kg feed): 0.68
- Depression score, Incidence (PEDV [2]; 30 mg/kg feed): 4/25
- Diarrhea score, Incidence (PEDV [2]; 30 mg/kg feed): 19/25
- Gauntness score, Incidence (PEDV [2]; 30 mg/kg feed): 14/25
- Gauntness score, Mean of Day 0 to 14 (PEDV [2]; 30 mg/kg feed): 0.14
- Depression score, Mean of Day 0 to 14 (PEDV [2]; 30 mg/kg feed): 0.03
- Diarrhea score, Mean of Day 0 to 14 (PEDV [2]; 30 mg/kg feed): 1.45
- incidence of depression, animals (PEDV [2]; 60 mg/kg feed, 14-d period): 3 animals
- Depression score, Severity (PEDV [2]; 60 mg/kg feed): 0.12
- Diarrhea score, Severity (PEDV [2]; 60 mg/kg feed): 2.48
- Gauntness score, Severity (PEDV [2]; 60 mg/kg feed): 0.52
- Depression score, Incidence (PEDV [2]; 60 mg/kg feed): 3/25
- Diarrhea score, Incidence (PEDV [2]; 60 mg/kg feed): 19/25
- Gauntness score, Incidence (PEDV [2]; 60 mg/kg feed): 11/25
- Gauntness score, Mean of Day 0 to 14 (PEDV [2]; 60 mg/kg feed): 0.14
- Depression score, Mean of Day 0 to 14 (PEDV [2]; 60 mg/kg feed): 0.02
- Diarrhea score, Mean of Day 0 to 14 (PEDV [2]; 60 mg/kg feed): 1.37
- duration of shedding (PEDV [3]; 0, 30, 60 mg/kg feed): generally decreased as narasin level increased
- effect of narasin level on the percentage of pigs shedding PEDV (PEDV [3]; 0, 30, 60 mg/kg feed, P>0.10): no effect
- viral shedding compared to the control (PEDV [3]; 30 mg/kg feed): lower (P<0.10) viral shedding on Day 2 and Day 3
- Viral shedding (PEDV [3]; 30 mg/kg feed, Day 0): 0 cells/mL
- Viral shedding (PEDV [3]; 30 mg/kg feed, Day 1): 1 cells/mL
- Viral shedding (PEDV [3]; 30 mg/kg feed, Day 2): 1,005* cells/mL
- Viral shedding (PEDV [3]; 30 mg/kg feed, Day 3): 152,889* cells/mL
- Viral shedding (PEDV [3]; 30 mg/kg feed, Day 4): 7,543,717 cells/mL
- Viral shedding (PEDV [3]; 30 mg/kg feed, Day 5): 108,303,640 cells/mL
- Viral shedding (PEDV [3]; 30 mg/kg feed, Day 6): 879,972,048 cells/mL
- Viral shedding (PEDV [3]; 30 mg/kg feed, Day 7): 1,422,120,182 cells/mL
- Viral shedding (PEDV [3]; 30 mg/kg feed, Day 8): 268,967,479 cells/mL
- Viral shedding (PEDV [3]; 30 mg/kg feed, Day 9): 63,817,042 cells/mL
- Viral shedding (PEDV [3]; 30 mg/kg feed, Day 14): 2,256 cells/mL
- viral shedding compared to the control (PEDV [3]; 60 mg/kg feed): lower (P<0.10) viral shedding on Day 2, 3, 4, 5, and 6
- Viral shedding (PEDV [3]; 60 mg/kg feed, Day 0): 0 cells/mL
- Viral shedding (PEDV [3]; 60 mg/kg feed, Day 1): 0 cells/mL
- Viral shedding (PEDV [3]; 60 mg/kg feed, Day 2): 1* cells/mL
- Viral shedding (PEDV [3]; 60 mg/kg feed, Day 3): 4,085* cells/mL
- Viral shedding (PEDV [3]; 60 mg/kg feed, Day 4): 18,980* cells/mL
- Viral shedding (PEDV [3]; 60 mg/kg feed, Day 5): 593,842* cells/mL
- Viral shedding (PEDV [3]; 60 mg/kg feed, Day 6): 5,551,647* cells/mL
- Viral shedding (PEDV [3]; 60 mg/kg feed, Day 7): 171,586,154 cells/mL
- Viral shedding (PEDV [3]; 60 mg/kg feed, Day 8): 58,813,444 cells/mL
- Viral shedding (PEDV [3]; 60 mg/kg feed, Day 9): 16,189,481 cells/mL
- Viral shedding (PEDV [3]; 60 mg/kg feed, Day 14): 9,262 cells/mL
- effect of narasin level on overall growth performance (PEDV [4]): no effect
